From ChEMBL document CHEMBL1147189, “QSAR analysis for heterocyclic antifungals” (2007)
≈ marks a conversion by molar mass, not a printed value.

Tested on: Candida albicans
Test: Antifungal activity against Candida albicans by serial dilution method
Format: functional
Details: read-out: -Log MIC (converted)

Compound | MIC [µM]
c1ccc(CCc2nc3ccccc3[nH]2)cc1 | 83.6 (≈ 18.6 µg/mL)
O=[N+]([O-])c1ccc2[nH]c(CSc3ccccc3)nc2c1 | 43.9 (≈ 12.5 µg/mL)
Cc1ccc2[nH]c(CSc3ccccc3)nc2c1 | 97.9 (≈ 24.9 µg/mL)
Clc1ccc2oc(COc3ccccc3)nc2c1 | 45.3 (≈ 11.8 µg/mL)
Cc1ccc2nc(CSc3ccccc3)oc2c1 | 97.9 (≈ 25 µg/mL)
COC(=O)c1ccc2[nH]c(COc3ccccc3)nc2c1 | 88.5 (≈ 25 µg/mL)
c1ccc(NCc2nc3ccccc3[nH]2)cc1 | 112 (≈ 25 µg/mL)
O=[N+]([O-])c1ccc(Cc2nc3cc([N+](=O)[O-])ccc3o2)cc1 | 20.9 (≈ 6.25 µg/mL)
Clc1ccc2[nH]c(COc3ccccc3)nc2c1 | 48.3 (≈ 12.5 µg/mL)
CC(=O)Nc1ccc(-c2nc3cc(C)ccc3o2)cc1 | 94 (≈ 25 µg/mL)
CC(C)(C)c1ccc(-c2nc3ccccc3o2)cc1 | 99.8 (≈ 25.1 µg/mL)
Cc1ccc2nc(COc3ccccc3)oc2c1 | 104 (≈ 25 µg/mL)
O=[N+]([O-])c1ccc2oc(COc3ccc(Cl)cc3)nc2c1 | 82 (≈ 25 µg/mL)
O=[N+]([O-])c1cc2oc(CSc3ccccc3)nc2cc1Cl | 39 (≈ 12.5 µg/mL)
Clc1ccc(-c2nc3cc(Cl)ccc3o2)cc1 | 94.6 (≈ 25 µg/mL)
Cc1ccc(-c2nc3cc([N+](=O)[O-])ccc3o2)cc1 | 49.2 (≈ 12.5 µg/mL)
CC(C)(C)c1ccc(-c2nc3cc([N+](=O)[O-])ccc3o2)cc1 | 42.2 (≈ 12.5 µg/mL)
CNc1ccc(-c2nc3cc(Cl)ccc3o2)cc1 | 94.4 (≈ 24.4 µg/mL)
Clc1ccc(OCc2nc3ccccc3s2)cc1 | 181 (≈ 49.9 µg/mL)
COc1ccc(-c2nc3ncccc3o2)cc1 | 55.3 (≈ 12.5 µg/mL)
CCOc1ccc(-c2nc3ncccc3o2)cc1 | 52.1 (≈ 12.5 µg/mL)
O=[N+]([O-])c1ccc(Cc2nc3ccccc3o2)cc1 | 49.2 (≈ 12.5 µg/mL)
Clc1ccc2oc(Cc3ccccc3)nc2c1 | 51.3 (≈ 12.5 µg/mL)
c1ccc(Cc2nc3ccccc3o2)cc1 | 59.8 (≈ 12.5 µg/mL)
COc1ccc(Cc2nc3cc(Cl)ccc3o2)cc1 | 45.7 (≈ 12.5 µg/mL)

Compound | MIC [µM]
Clc1ccc2oc(Cc3ccc(Br)cc3)nc2c1 | 38.9 (≈ 12.6 µg/mL)
O=[N+]([O-])c1ccc2oc(Cc3ccc(Cl)cc3)nc2c1 | 21.7 (≈ 6.26 µg/mL)
CCc1ccc(-c2nc3cc(N)ccc3o2)cc1 | 105 (≈ 25 µg/mL)
CN(C)c1ccc(-c2nc3cc(N)ccc3o2)cc1 | 98.9 (≈ 25 µg/mL)
Cc1ccc(-c2nc3cc(C)ccc3o2)cc1 | 112 (≈ 25.1 µg/mL)
CCc1ccc(-c2nc3cc(C)ccc3o2)cc1 | 105 (≈ 25 µg/mL)
Cc1ccc2oc(COc3ccccc3)nc2c1 | 105 (≈ 25.1 µg/mL)
c1ccc(OCc2nc3ncccc3o2)cc1 | 55 (≈ 12.4 µg/mL)
Cc1ccc2oc(-c3ccc(F)cc3)nc2c1 | 110 (≈ 25 µg/mL)
Clc1ccc(OCc2nc3ccccc3[nH]2)cc1 | 96.6 (≈ 25 µg/mL)
CCc1ccc(-c2nc3ncccc3o2)cc1 | 55.8 (≈ 12.5 µg/mL)
COc1ccc(Cc2nc3ccccc3o2)cc1 | 52.2 (≈ 12.5 µg/mL)
O=[N+]([O-])c1ccc2oc(-c3ccc(Cl)cc3)nc2c1 | 45.5 (≈ 12.5 µg/mL)
Cc1ccc2[nH]c(COc3ccccc3)nc2c1 | 105 (≈ 25 µg/mL)
O=[N+]([O-])c1ccc(Cc2nc3cc(Cl)ccc3o2)cc1 | 43.4 (≈ 12.5 µg/mL)
COC(=O)c1ccc2oc(COc3ccccc3)nc2c1 | 88.3 (≈ 25 µg/mL)
c1ccc(OCc2nc3ccccc3o2)cc1 | 111 (≈ 25 µg/mL)
O=[N+]([O-])c1ccc2nc(CSc3ccccc3)oc2c1 | 43.7 (≈ 12.5 µg/mL)
CNc1ccc(-c2nc3cc(C)ccc3o2)cc1 | 105 (≈ 25 µg/mL)
Cc1ccc2[nH]c(COc3ccc(Cl)cc3)nc2c1 | 91.8 (≈ 25 µg/mL)
Brc1ccc(Cc2nc3ccccc3o2)cc1 | 43.7 (≈ 12.6 µg/mL)
O=[N+]([O-])c1cc2oc(COc3ccccc3)nc2cc1Cl | 164 (≈ 50 µg/mL)
c1ccc(SCc2nc3ccccc3o2)cc1 | 51.8 (≈ 12.5 µg/mL)
COC(=O)c1ccc2oc(COc3ccc(Cl)cc3)nc2c1 | 78.7 (≈ 25 µg/mL)
O=[N+]([O-])c1ccc2oc(Cc3ccccc3)nc2c1 | 24.6 (≈ 6.26 µg/mL)

The remaining lines, values ahead:

MIC [µM] | Compound
119 (≈ 25 µg/mL) | Nc1ccc(-c2nc3ccccc3o2)cc1
110 (≈ 25 µg/mL) | Nc1ccc2oc(-c3ccc(F)cc3)nc2c1
52.1 (≈ 14 µg/mL) | O=[N+]([O-])c1ccc2[nH]c(COc3ccccc3)nc2c1
91 (≈ 25 µg/mL) | Clc1ccc2[nH]c(CSc3ccccc3)nc2c1
51.3 (≈ 12.5 µg/mL) | Clc1ccc(Cc2nc3ccccc3o2)cc1
105 (≈ 25 µg/mL) | Cc1ccc2[nH]c(CNc3ccccc3)nc2c1
83.9 (≈ 25 µg/mL) | COC(=O)c1ccc2[nH]c(CSc3ccccc3)nc2c1
46.7 (≈ 12.5 µg/mL) | O=[N+]([O-])c1ccc2oc(CCc3ccccc3)nc2c1
59.3 (≈ 12.5 µg/mL) | Nc1ccc(-c2nc3ncccc3o2)cc1
87.3 (≈ 25 µg/mL) | CC(=O)Nc1ccc(-c2nc3cc(Cl)ccc3o2)cc1
97.1 (≈ 25 µg/mL) | CCc1ccc(-c2nc3cc(Cl)ccc3o2)cc1
41.8 (≈ 12.5 µg/mL) | COC(=O)c1ccc2oc(CSc3ccccc3)nc2c1
99.1 (≈ 25 µg/mL) | Cc1ccc2oc(-c3ccc(N(C)C)cc3)nc2c1
59.6 (≈ 12.5 µg/mL) | Cc1ccc(-c2nc3ncccc3o2)cc1
91.2 (≈ 25 µg/mL) | O=[N+]([O-])c1ccc(-c2nc3cc(Cl)ccc3o2)cc1
148 (≈ 50 µg/mL) | O=[N+]([O-])c1cc2oc(COc3ccc(Cl)cc3)nc2cc1Cl
43.8 (≈ 12.5 µg/mL) | O=[N+]([O-])c1ccc2oc(CSc3ccccc3)nc2c1
84.9 (≈ 25 µg/mL) | Clc1ccc(OCc2nc3cc(Cl)ccc3o2)cc1
49 (≈ 12.5 µg/mL) | Nc1ccc(-c2nc3cc([N+](=O)[O-])ccc3o2)cc1
183 (≈ 50 µg/mL) | Cc1ccc2nc(COc3ccc(Cl)cc3)oc2c1
51.9 (≈ 12.5 µg/mL) | O=[N+]([O-])c1ccc(-c2nc3ncccc3o2)cc1
105 (≈ 25.1 µg/mL) | COc1ccc(-c2nc3cc(C)ccc3o2)cc1
48 (≈ 12.5 µg/mL) | Clc1ccc(OCc2nc3ncccc3o2)cc1

MIC [µM] | Compound
55.8 (≈ 12.5 µg/mL) | c1ccc(CCc2nc3ncccc3o2)cc1
96.4 (≈ 25 µg/mL) | Clc1ccc(OCc2nc3ccccc3o2)cc1
164 (≈ 50 µg/mL) | O=[N+]([O-])c1ccc2nc(COc3ccc(Cl)cc3)oc2c1
52 (≈ 12.5 µg/mL) | c1ccc(SCc2nc3ccccc3[nH]2)cc1
52.8 (≈ 12.5 µg/mL) | Cc1ccc2[nH]c(CCc3ccccc3)nc2c1
52.2 (≈ 12.5 µg/mL) | O=[N+]([O-])c1ccc2oc(-c3ccccc3)nc2c1
18.8 (≈ 6.28 µg/mL) | O=[N+]([O-])c1ccc2oc(Cc3ccc(Br)cc3)nc2c1
183 (≈ 50 µg/mL) | Cc1ccc2oc(COc3ccc(Cl)cc3)nc2c1
39.3 (≈ 12.5 µg/mL) | O=[N+]([O-])c1ccc2oc(-c3ccc(Br)cc3)nc2c1
22 (≈ 6.26 µg/mL) | COc1ccc(Cc2nc3cc([N+](=O)[O-])ccc3o2)cc1
92.5 (≈ 25 µg/mL) | O=[N+]([O-])c1ccc2oc(COc3ccccc3)nc2c1
185 (≈ 50.1 µg/mL) | O=[N+]([O-])c1ccc2nc(COc3ccccc3)oc2c1
79.1 (≈ 25 µg/mL) | COC(=O)c1ccc2[nH]c(COc3ccc(Cl)cc3)nc2c1
42.7 (≈ 12.5 µg/mL) | Clc1ccc(OCc2nc3cc(Cl)ccc3[nH]2)cc1
97.3 (≈ 25 µg/mL) | Clc1ccc2[nH]c(CCc3ccccc3)nc2c1
112 (≈ 25 µg/mL) | CNc1ccc(-c2nc3ccccc3o2)cc1
77.6 (≈ 22.4 µg/mL) | Nc1ccc2oc(-c3ccc(Br)cc3)nc2c1
97.9 (≈ 25 µg/mL) | Cc1ccc2oc(CSc3ccccc3)nc2c1
111 (≈ 25 µg/mL) | c1ccc(OCc2nc3ccccc3[nH]2)cc1
207 (≈ 50 µg/mL) | c1ccc(OCc2nc3ccccc3s2)cc1 [2-(PHENOXYMETHYL)BENZOTHIAZOLE]
97.1 (≈ 25 µg/mL) | c1ccc(SCc2nc3ccccc3s2)cc1 [2-(PHENYLTHIOMETHYL)BENZO[D]THIAZOLE]
128 (≈ 25 µg/mL) | c1ccc(-c2nc3ccccc3o2)cc1 [2-PHENYLBENZO[D]OXAZOLE]
